Measurements: patent US11235033B1, “Materials and methods for the treatment of vascular calcification” (THE FLORIDA INTERNATIONAL UNIVERSITY BOARD OF TRUSTEES, priority 2020, dated 2022)
“Also recorded” adds a separate entry of the source. Read-outs that look alike come from different tables or passages of the source.

Columns and labels:
caveolin-1 [1] = assay: Western blotting of caveolin-1 in SMCs and in EVs under pro-calcific conditions; type: cell-based, human; conditions: AG 1478 2.5 μM; for EV caveolin-1: EVs under pro-calcific conditions, FIG. 8D; for intracellular caveolin-1: SMCs, FIG. 8C
Excerpt: (§1) EVs from the in vitro samples are isolated using previously established procedures, which includes 1,000×g and 10,000×g centrifugations to remove cells and large contaminants and a 100,000×g ultracentrifugation to obtain EVs suspended in conditioned media.
(§2) To determine changes in caveolin-1 associated with the culture conditions and treatments, western blotting and immunofluorescence are used to assay caveolin-1 phosphorylation on tyrosine 14. This site is associated with changes in EGFR activity and caveolae internalization. Immunofluorescence is then used to assess the localization of caveolin-1 within the SMCs for the different culture conditions at these time points. Western blotting is used to quantify caveolin-1 in EVs relative to SMC lysates.

[2] = test system: tissue non-specific alkaline phosphatase (TNAP); assay: TNAP activity in EVs released by SMCs; type: cell-based, human; conditions: AG 1478 2.5 μM, FIG. 8B
Excerpt: To obtain EVs from the mouse aortae, following collagenase digestion and tissue homogenization using a Dounce homogenizer, cells and large extracellular aggregates are removed by centrifugation steps of 1,000×g and 10,000×g, respectively. EVs are isolated from the remaining supernatant by ultracentrifugation at 100,000×g. Western blotting analyses of commonly enriched EV markers determine the efficacy of the isolation procedures. The presence of caveolin-1 and activity of the pro-calcific enzyme TNAP are also assessed in the extracted EVs.
as §1

[3] = test system: primary human coronary artery smooth muscle cells; assay: Calcific mineral formation by SMCs cultured in pro-calcific (osteogenic) media in vitro; type: cell-based; conditions: for SMC mineralization in vitro: AG 1478 2.5 μM, FIG. 8A
Protocol: Pro-calcific media, optimized to induce calcification, consists of growth media supplemented with 10 nM dexamethasone, 100 μM L-ascorbic acid, and 10 mM β-glycerolphosphate. All in vitro experiments proceed for 14 days, when release of calcifying EVs from human coronary artery SMCs in pro-calcific media peaks.
[…] Changes in SMC phenotype are assayed in the culture conditions and in response to the small molecule treatments by measuring expression of osteogenic and SMC relevant genes at the time points considered. In vitro mineralization is assessed using alizarin red S staining, extraction, and colorimetric analyses after 21 days in culture.

dynamin = conditions: cited from earlier work
caveolin-1 [4] = assay: Immunofluorescence of caveolin-1 localization in SMCs in pro-calcific media; type: cell-based, human; conditions: 1 μM AG1478, SMCs in pro-calcific media; FIG. 13
Excerpt: (§3) The vasodilatory effects of RXFP1 agonism occurs through interactions within caveolae on endothelial cells. G-protein-coupled receptors (GPCRs), such as RXFP1, use caveolae scaffolding domains to regulate interactions with other proteins and activate downstream signaling. […] RXFP1 agonism may stabilize existing caveolae, leading to the observed decreased caveolin-1 turnover. RXFP1 agonist-induced stabilization of caveolae may prevent the formation of calcifying EVs.
as §2

CKD mice = assay: Aortic calcification in CKD mice fed a high phosphate diet; type: in vivo, mouse; conditions: for calcification in treated CKD mice: CKD diet regimen, AG1478 20 mg/kg or ML290 30 mg/kg oral gavage every 2 days
Protocol: Eight-week old SMMHC-CreER^T2+/Cav1^fl/fl mice receive daily intraperitoneal injections of either peanut oil (vehicle control) or tamoxifen (1 mg/kg) for two weeks. Following the final injection, mice receive an adenine-enriched (0.2%) diet for 6 weeks to induce kidney dysfunction. Elevated phosphate (1.8%) is then added to the diet to induce medial calcification. Using a sensitive near-infrared calcium mineral tracer (OsteoSense 680), significant aortic calcification in mice was observed after 2 weeks of the high phosphate diet (FIG. 1). Vascular calcification continues to increase for up to 6 weeks of the high phosphate diet.
To test the therapeutic efficacy of these small molecules, e.g., ML290 or AG1478, the same CKD diet regimen is used as discussed above. A mouse model designed to test agonists for human RXFP1 is utilized.
Beginning at prescribed time points (FIG. 11), mice are treated with the EGFR inhibitor, AG1478 (20 mg/kg), or ML290 (30 mg/kg) via oral gavage every 2 days. Control mice receive vehicle gavage. The treatments begin either at the initiation of the high phosphate diet (to determine if the treatments prevent mineral formation) or after two weeks of the high phosphate diet (to determine if the treatments can reverse medial calcification).

rodent receptor = target: T1, rodent receptor (Mus musculus, UniProt Q6R6I7); conditions: cited from earlier work
T1 sequence (Q6R6I7 1-758): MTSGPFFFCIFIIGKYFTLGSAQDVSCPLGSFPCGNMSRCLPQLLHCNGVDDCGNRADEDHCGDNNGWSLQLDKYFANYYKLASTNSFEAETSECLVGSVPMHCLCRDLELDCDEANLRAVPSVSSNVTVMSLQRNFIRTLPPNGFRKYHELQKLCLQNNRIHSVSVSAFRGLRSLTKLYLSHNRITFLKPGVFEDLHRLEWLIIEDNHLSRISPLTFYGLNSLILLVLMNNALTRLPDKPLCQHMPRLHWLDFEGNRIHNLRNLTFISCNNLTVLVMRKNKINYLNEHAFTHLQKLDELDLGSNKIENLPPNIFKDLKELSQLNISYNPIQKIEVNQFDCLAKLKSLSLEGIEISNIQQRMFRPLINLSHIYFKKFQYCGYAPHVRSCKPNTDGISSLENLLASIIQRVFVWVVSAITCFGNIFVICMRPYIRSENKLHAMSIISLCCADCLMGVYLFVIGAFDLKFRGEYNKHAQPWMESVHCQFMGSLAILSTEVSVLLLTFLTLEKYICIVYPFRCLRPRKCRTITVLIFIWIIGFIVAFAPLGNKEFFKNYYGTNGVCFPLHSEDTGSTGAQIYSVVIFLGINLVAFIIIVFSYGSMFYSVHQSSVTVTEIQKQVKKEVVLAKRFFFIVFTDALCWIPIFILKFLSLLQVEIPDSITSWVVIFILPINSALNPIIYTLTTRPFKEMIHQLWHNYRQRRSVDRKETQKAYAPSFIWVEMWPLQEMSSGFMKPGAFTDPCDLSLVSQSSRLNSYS

PPARGC1A = PPARGC1A gene expression in SMCs cultured in pro-calcific media; type: cell-based, human; conditions: FIG. 15
Excerpt: The modulation of a different GPCR, the serotonin 2B receptor, alters intracellular trafficking to prevent calcification by aortic valve cells. Both 5-HT2B and RXFP1 can modulate vascular tone through interactions with nitric oxide synthase—a known caveolin-1 interactor. RXFP1 may, however, affect caveolin-1 protein stability directly. Peroxisome Proliferator-Activated Receptor γ (PPARγ) activation promotes lysosomal degradation of caveolin-1 in pulmonary artery SMCs. […] Therefore, thus result indicates the potential mechanism for the observed anti-calcific effects of ML290.

RXFP1 [5] = target: T2, RXFP1 (Homo sapiens, UniProt Q9HBX9); conditions: cited from earlier work
T2 sequence (Q9HBX9 1-757): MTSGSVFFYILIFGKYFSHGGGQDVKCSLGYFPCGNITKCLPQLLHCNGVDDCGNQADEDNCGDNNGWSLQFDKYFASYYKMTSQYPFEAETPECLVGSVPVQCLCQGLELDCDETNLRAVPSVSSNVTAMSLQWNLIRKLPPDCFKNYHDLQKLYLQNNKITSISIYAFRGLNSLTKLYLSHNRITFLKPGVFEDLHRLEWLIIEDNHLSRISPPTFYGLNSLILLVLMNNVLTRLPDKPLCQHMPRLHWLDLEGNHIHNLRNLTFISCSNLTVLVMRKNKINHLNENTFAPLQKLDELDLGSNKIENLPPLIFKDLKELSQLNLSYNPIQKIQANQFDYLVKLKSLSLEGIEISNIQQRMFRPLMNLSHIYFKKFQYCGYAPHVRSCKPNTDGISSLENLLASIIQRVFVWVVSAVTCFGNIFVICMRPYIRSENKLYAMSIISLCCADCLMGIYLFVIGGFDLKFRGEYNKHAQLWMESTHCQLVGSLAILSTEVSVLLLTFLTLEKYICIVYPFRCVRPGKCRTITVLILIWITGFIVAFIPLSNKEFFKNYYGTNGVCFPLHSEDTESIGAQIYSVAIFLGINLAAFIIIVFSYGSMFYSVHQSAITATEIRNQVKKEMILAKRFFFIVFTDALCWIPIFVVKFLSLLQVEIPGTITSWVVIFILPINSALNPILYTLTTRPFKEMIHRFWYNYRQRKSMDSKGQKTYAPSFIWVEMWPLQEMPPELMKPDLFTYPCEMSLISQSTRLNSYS

[6] = Adverse events in 25-week atherosclerotic mouse study; type: in vivo; conditions: mice, oral gavage, preliminary 25-week atherosclerotic study
THP1 cells = conditions: cited from earlier work
RXFP1 [7] = target: T2, RXFP1; conditions: cited from earlier work; remark: listed apart in the source
[8] = Pharmacokinetics study of ML290 via oral administration in hRXFP1/hRXFP1 mice; type: in vivo; conditions: mouse, 30 mg/kg oral
atherogenic Apoe−/− mice = assay: Calcification (OsteoSense fluorescence) in atherogenic Apoe-/- mice; type: in vivo, mouse; conditions: oral gavage 30 mg/kg; for OsteoSense fluorescence (mineral) vs vehicle treated controls: after 25 weeks of atherogenic diet
Excerpt: A chow control is shown for comparison (first aorta). C) Quantification of mice treated with ML290 at the initiation of the atherogenic diet. […] D) Quantification of OsteoSense signal in mice treated at 15 weeks of atherogenic diet, indicating potential of treatment to reverse existing remodeling. #p<0.0001.
Relaxin Family Peptide Receptor 1 (RXFP1) agonism induces vasodilation through a mechanism that may involve interactions with endothelial nitric oxide synthase within caveolae. The relaxin peptide, activating RXFP1, has therapeutic potential in treating fibrosis and vasculopathies.

caveolin-1 [9] = assay: Caveolin-1 gene expression in pro-calcific SMC culture; type: cell-based, human; conditions: SMCs, pro-calcific conditions, 24 h; FIG. 14
Excerpt: as §3

[10] = in vivo; cited from earlier work
hypertensive rats = conditions: chronic treatment; cited from earlier work

**Q.** Which results are given for `COc1cc2ncnc(Nc3cccc(Cl)c3)c2cc1OC` [AG1478]?
**A.** EV caveolin-1 (caveolin-1 [1]): reduces caveolin-1 released in EVs; also recorded: decreases EV caveolin-1; EV caveolin-1 (caveolin-1 [1]; listed as AG 1478): reduces EV caveolin-1; intracellular caveolin-1 (caveolin-1 [1]): does not change intracellular caveolin-1; also recorded: without affecting intracellular caveolin-1 levels; intracellular caveolin-1 (caveolin-1 [1]; listed as AG 1478): does not affect intracellular caveolin-1; EV TNAP activity [2]: reduces activity; EV TNAP activity ([2]; listed as AG 1478): reduces EV TNAP activity; SMC mineralization in vitro [3]: prevents calcific mineral formation; SMC mineralization in vitro ([3]; listed as AG 1478): prevents SMC mineralization; dynamin activity (dynamin): reduces dynamin activity; caveolin-1 plasma membrane (peripheral) localization (caveolin-1 [4]): maintained the peripheral localization of caveolin-1; also recorded: preserves caveolin-1 (red) plasma membrane localization; calcification in treated CKD mice (CKD mice): Diminished calcification

**Q.** Which “activation of rodent receptor” value (rodent receptor) does the source give for `CC(C)Oc1ccccc1C(=O)Nc1ccccc1C(=O)Nc1cccc(S(=O)(=O)C(F)(F)F)c1` [ML290] here?
**A.** does not activate rodent receptor

**Q.** What about the PPARGC1A gene expression (PPARGC1A) of the same compound?
**A.** increases PPARGC1A; also recorded: increased expression of PPARGC1A

**Q.** And the “agonism of human RXFP1” value (RXFP1 [5])?
**A.** potent and efficacious non-peptide agonist; also recorded: specific agonist for human RXFP1

**Q.** What about the “mineral formation by vascular smooth muscle cells in vitro” value ([3]; ML290 5 μM, FIG. 9A) of the same compound?
**A.** significantly reduces mineral formation

**Q.** What about the “anti-calcification effect on human SMCs in vitro” value ([3]; primary human coronary artery smooth muscle cells cultured in osteogenic stimuli) of the same compound?
**A.** mitigates calcification; also recorded: profound anti-calcification effects

**Q.** And the adverse events [6]?
**A.** No adverse events

**Q.** What about the VEGF gene expression (THP1 cells) of the same compound?
**A.** increase

**Q.** What about the cAMP levels (THP1 cells) of the same compound?
**A.** increase

**Q.** And the “selectivity towards RXFP1 over RXFP2 receptors” value (RXFP1 [7])?
**A.** > 100 fold

**Q.** What about the half-life ([8]; aorta, read-out: t½ in aorta (converted)) of the same compound?
**A.** 8 h

**Q.** What about the half-life ([8]; serum, read-out: t½ in serum (converted)) of the same compound?
**A.** 11 h

**Q.** And the calcification in vivo (atherogenic Apoe−/− mice; Apoe−/− mice, FIG. 9B, 30 mg/kg)?
**A.** mitigates calcification; also recorded: reduces calcification in vivo

**Q.** What about the “OsteoSense fluorescence (mineral) vs vehicle treated controls” value (atherogenic Apoe−/− mice; treated after 15 weeks of atherogenic diet) of the same compound?
**A.** Lower OsteoSense fluorescence

**Q.** What about the “OsteoSense fluorescence (mineral) vs vehicle treated controls” value (atherogenic Apoe−/− mice; treated at the beginning of the atherogenic diet) of the same compound?
**A.** Lower OsteoSense fluorescence

**Q.** What about the “calcification in treated CKD mice” value (CKD mice) of the same compound?
**A.** Diminished calcification

**Q.** And the aortic calcification (CKD mice; CKD mice, 30 mg/kg oral gavage from initiation of high phosphate diet, 2 weeks, FIG. 12, 30 mg/kg)?
**A.** significant prevented aortic calcification; also recorded: significantly prevents aortic calcification

**Q.** And the caveolin-1 gene expression (caveolin-1 [9])?
**A.** decreases caveolin-1 gene expression; also recorded: reduces caveolin-1 expression

**Q.** With relaxin as the compound, how does the safety and tolerability [10] read?
**A.** safe and well-tolerated

**Q.** And the arterial compliance (hypertensive rats)?
**A.** improved arterial compliance
